The subject of this experiment is T1, L-GLS (L-glutaminase) of Halomonas aquamarina HBIM1.
T1 construct: gene glsA
To be noted: unit printed as mM^-1 (reciprocal, probably mM meant); pH and temperature of the kinetic run not given.

On to `NC(=O)CC[C@H](N)C(=O)O` [L-glutamine], for which the Km worked out at 0.198 mM⁻¹.

These data come from publication PMC12375786, “Revolutionizing cancer treatment with Halomonas Aquamarina L-Glutaminase: insights from in vitro and computational studies” (Scientific Reports, 2025).
